Where “and” joins values, the source holds several entries; their conditions need not be identical. Equal values may be shown once. Read-outs that look alike come from different tables or passages of the source.
Experiments:
[1] = [3H]IP3-binding activity, Scatchard plot analysis
[2] = [3H]IP3-binding activity, Scatchard plot analysis; remark: listed apart in the source
Method: The IP3-binding activities of these fusion proteins were measured mainly by the method of Yoshikawa et al (1996).
Each fusion protein (IP3 sponge) (0.2 μg) was mixed with 100 μl of binding buffer-α (50 mM Tris-HCl (pH 8.0 at 4° C.), 1 mM EDTA, 1 mM β-mercaptoethanol) that contained 9.6 nM D-myo-[^3H](1,4,5)IP3 (777 GBq/mmol; DuPont NEN) (hereinafter, abbreviated as “[^3H]IP3”) and various concentrations of non-labeled D-myo-(1,4,5)IP3 (Dojindo) (hereinafter, abbreviated as “cold IP3”). The mixture was left to stand on ice for 10 minutes. To the mixture, 4 μl of 50 mg/ml γ-globulin (Sigma) (final concentration: 1 mg/ml) and 100 μl of 30% PEG 6000 (Sigma)/binding buffer-a solution (final concentration: 15%) were added. The resultant mixture was left to stand on ice for 5 minutes, and then centrifuged at 10,000×g at 2° C. for 5 minutes to collect polypeptide/PEG complex. PEG-precipitated [^3H]IP3-binding polypeptide was well solubilized with 180 μl solubilizer Solvable (DuPont NEN). The resultant was neutralized with 18 μl glacial acetic acid and then added to 5 ml liquid scintillation counter (Atomlight [DuPont NEN]) to measure the radioactivity (first radioactivity). Non-specific binding of each protein was determined by measuring the second radioactivity in the presence of 2 μM or 10 μM cold IP3. Then, a specific binding value of each protein was obtained by subtracting the second radioactivity (non-specific binding value) from the first radioactivity values.
Scatchard plot analysis was conducted under the following conditions. For low-affinity polypetides (G224-m30 and control GST), the binding experiment was conducted in 100 μl binding buffer a by adding 9.6 nM [^3H]IP3 (DuPont NEN) and 10–20 nM of cold IP3 to 2 μg of IP3-binding polypeptide, and by adding 9.6 nM [^3H]IP3 (DuPont NEN) and 50 nM-2 μM of cold IP3 to 0.01 μg IP3-binding polypeptide. For high-affinity IP3 sponges (G224 and G224-m49), binding experiment was conducted with 0.02 μg IP3 sponges at [^3H]-IP3 concentrations of 0.15, 0.3, 0.6, 1.2, 2.4, 4.8 and 9.6 nM without adding cold IP3.

[3] = target: T1, IP3 receptor of cerebellar microsome (Mus musculus, UniProt P11881); assay: Inhibition of [3H]IP3 binding of cerebellar microsome by IP3 sponges; conditions: 40 μg cerebellar microsome, 9.6 nM [3H]IP3, 100 μl (FIG. 4)
T1 construct: Mouse cerebellum is a tissue that is rich in IP3 receptor; from tissue; host or cells: mouse (ddY) cerebellum, microsomal fraction
Method: The inhibition effects of the IP3-binding polypeptides (IP3 sponges) on [H]IP3-binding activity of cerebellar microsome was analyzed as follows.
A microsomal fraction was prepared from the cerebella of mice ddY (Nippon SLC) mainly by following the method of Nakada et al. (Nakada S. et al., Biochem. J. 277:125–131, 1991). In 100 μl of binding buffer α, various concentrations of the IP3 sponges were added respectively to see the changes in the binding between the cerebellar microsome (40 μg) and 9.6 nM [^3H]-IP3 according to the above method (see Scatchard plot analysis).
Mouse cerebellum is a tissue that is rich in IP3 receptor and whose microsomal fraction has a [^3H]IP3-binding activity which is at least 50 times higher than those in other tissues (Maeda et al., 1990 (supra)). […] It was calculated that, there were about 0.92 pmol of IP3-binding site of cerebellum IP3 receptor and 0.96 pmol of [^3H]IP3 present in the 100 μl solution.

[4] = target: T2, IP3 receptor on cerebellar microsome (Mus musculus, UniProt P11881); assay: Inhibition of IP3-induced Ca2+ release (IICR) from cerebellar microsome, fura-2; type: biochemical
T2 construct: Mouse cerebellum is a tissue that is rich in IP3 receptor; from tissue; host or cells: mouse (ddY) cerebellum, microsomal fraction
T2 sequence (P11881 whole entry N1264K/P2675L): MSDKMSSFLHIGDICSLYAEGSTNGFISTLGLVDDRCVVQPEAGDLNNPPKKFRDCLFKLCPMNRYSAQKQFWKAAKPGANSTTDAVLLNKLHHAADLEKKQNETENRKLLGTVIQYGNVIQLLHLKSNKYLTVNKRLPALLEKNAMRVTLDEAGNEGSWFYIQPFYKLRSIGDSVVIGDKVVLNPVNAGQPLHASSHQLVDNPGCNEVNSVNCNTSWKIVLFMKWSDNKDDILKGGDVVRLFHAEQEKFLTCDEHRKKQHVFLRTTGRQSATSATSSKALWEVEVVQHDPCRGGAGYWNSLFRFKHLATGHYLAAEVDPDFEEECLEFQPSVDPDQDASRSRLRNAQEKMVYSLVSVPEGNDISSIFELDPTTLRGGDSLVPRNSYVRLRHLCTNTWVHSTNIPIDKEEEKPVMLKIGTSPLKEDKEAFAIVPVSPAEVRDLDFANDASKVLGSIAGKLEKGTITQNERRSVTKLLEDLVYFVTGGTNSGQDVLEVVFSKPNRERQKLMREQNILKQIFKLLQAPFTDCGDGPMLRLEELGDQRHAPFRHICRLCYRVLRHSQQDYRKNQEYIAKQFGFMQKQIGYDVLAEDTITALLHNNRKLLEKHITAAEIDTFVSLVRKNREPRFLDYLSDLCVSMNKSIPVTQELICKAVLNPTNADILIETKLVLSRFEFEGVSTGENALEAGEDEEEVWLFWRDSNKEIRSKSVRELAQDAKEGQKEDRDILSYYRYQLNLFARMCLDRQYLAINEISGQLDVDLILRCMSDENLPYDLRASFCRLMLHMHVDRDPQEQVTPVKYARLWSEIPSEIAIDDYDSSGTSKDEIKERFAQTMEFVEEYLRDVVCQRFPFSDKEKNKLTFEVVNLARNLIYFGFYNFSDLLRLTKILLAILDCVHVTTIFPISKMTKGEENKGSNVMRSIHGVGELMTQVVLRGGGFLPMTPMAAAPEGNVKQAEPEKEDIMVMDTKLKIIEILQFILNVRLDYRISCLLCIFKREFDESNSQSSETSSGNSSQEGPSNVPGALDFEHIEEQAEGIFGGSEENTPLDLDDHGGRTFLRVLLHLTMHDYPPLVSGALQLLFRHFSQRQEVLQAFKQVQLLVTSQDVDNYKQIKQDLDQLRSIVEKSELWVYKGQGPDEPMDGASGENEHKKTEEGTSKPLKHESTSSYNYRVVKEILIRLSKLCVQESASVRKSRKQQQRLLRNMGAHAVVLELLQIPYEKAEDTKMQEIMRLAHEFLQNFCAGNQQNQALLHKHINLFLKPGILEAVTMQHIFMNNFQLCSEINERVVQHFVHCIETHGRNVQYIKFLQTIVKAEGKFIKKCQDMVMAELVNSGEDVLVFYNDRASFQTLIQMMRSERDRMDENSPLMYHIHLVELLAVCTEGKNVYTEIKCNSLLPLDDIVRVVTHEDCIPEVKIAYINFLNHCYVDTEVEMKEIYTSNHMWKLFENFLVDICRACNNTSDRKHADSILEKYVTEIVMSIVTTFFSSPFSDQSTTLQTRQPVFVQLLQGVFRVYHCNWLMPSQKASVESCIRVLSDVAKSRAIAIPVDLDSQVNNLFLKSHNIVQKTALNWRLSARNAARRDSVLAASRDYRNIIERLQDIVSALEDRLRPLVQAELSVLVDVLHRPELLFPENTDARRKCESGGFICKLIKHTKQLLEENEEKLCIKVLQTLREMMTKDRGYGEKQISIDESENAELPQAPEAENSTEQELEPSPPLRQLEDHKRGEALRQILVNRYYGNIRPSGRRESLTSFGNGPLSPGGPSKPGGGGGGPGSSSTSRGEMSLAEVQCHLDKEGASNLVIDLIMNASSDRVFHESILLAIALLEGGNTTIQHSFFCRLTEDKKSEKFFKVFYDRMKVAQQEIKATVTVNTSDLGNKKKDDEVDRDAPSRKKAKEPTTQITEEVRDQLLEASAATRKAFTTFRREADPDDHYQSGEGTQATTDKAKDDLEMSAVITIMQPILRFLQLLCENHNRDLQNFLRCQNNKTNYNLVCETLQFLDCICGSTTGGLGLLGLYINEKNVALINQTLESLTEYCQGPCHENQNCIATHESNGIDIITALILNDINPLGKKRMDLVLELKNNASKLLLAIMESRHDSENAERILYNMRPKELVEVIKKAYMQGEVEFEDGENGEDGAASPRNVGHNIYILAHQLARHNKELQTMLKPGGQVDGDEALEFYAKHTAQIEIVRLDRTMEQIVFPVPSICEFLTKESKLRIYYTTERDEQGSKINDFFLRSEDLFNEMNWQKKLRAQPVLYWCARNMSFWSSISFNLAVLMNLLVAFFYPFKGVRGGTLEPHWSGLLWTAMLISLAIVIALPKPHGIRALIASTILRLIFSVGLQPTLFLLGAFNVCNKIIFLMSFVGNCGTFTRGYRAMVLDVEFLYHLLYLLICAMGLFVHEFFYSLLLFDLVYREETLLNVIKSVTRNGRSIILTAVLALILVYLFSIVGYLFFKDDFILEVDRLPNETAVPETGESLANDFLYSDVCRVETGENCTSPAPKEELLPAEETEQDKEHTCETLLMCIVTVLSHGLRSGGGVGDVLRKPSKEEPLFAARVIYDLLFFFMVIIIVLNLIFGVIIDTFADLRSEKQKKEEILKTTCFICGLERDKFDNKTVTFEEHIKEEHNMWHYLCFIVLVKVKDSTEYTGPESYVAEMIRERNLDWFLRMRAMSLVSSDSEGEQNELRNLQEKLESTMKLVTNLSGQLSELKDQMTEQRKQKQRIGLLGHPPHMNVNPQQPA
Method: To conduct a test of inhibiting IP3-induced Ca^2+ release, a microsomal fraction was prepared from mouse cerebellum as described in Example 3. The fraction was suspended in Buffer B, dispensed, and stored at −80° C. until it was used.
Composition of Buffer B was 110 mM KCl, 10 mM NaCl, 5 mM KH2PO4, 1 mM DDT, and 50 mM HEPES-KOH (pH 7.2) (containing a cocktail of protease inhibitors [0.1 mM PMSF, 10 μM leupeptin, 10 μM pepstatin A, 10 μM E-64] and 2 mM MgCl2).
An IP3-induced Ca^2+ release activity of cerebellar microsome was determined by using fura-2 (Molecular Probe) as a fluorescent Ca^2+ indicator. Specifically, excitations upon addition of IP3 at two wavelengths (340 nm and 380 nm) were measured with fluorescence spectrophotometer CAF110 (Nihon Bunko) to see the change in the fluorescent intensity ratio (F340/F380) at 500 nm.
IP3-induced Ca^2+ release from the cerebellar microsome is generally EC50=100–200 nM IP3. Cerebellar microsome (100 μg) was mixed with 500 μl of a release buffer (Buffer B containing 1 mM MgCl2, 2 μM fura-2, 1 mM DTT, 10 mM creatine phosphate, 40 U/ml creatine kinase, 1 μg/ml oligomycin, and the cocktail of protease inhibitors) in a measurement cuvette with a stirrer bar. The following reaction was conducted at 30° C. while constantly stirring with the stirrer bar.
One mM of ATP was added to the mixture in the cuvette to activate Ca^2+ pumping (Ca^2+-ATPase), whereby Ca^2+ was incorporated into the inner space of microsome (Ca^2+ loading). Ca^2+ loading was confirmed by monitoring until the decrease of fura-2 fluorescent level became constant. The change in the fura-2 fluorescent intensity ratio was measured (F340/F380) at a subthreshold level.
The effect of IP3 sponge on inhibiting IP3-induced Ca^2+ release activity of cerebellar microsome was analyzed as follows. After the addition of ATP, the curve of fura-2 fluorescent intensity was monitored until the decrease became constant. Then, various concentrations of IP3 sponges were added. After 1 min., 50 nM to 1 μM of IP3 was added to the reaction mixture to observe the change of fura-2 fluorescent intensity induced by the IP3.
The IP3 sponge concentration dependency was determined as follows. High affinity polypeptide G224 of 3.125, 6.25, 12.5, 25, 50, 100, 200 μg/ml were added to the reaction mixture, respectively. After about 1 min., 100 nM of IP3 was added to measure the Ca^2+ release activity induced by the IP3. The concentration dependency of low affinity polypeptide G224-m30 was determined by adding G224-m30 of 200, 400 and 500 μg/ml. After about 1 min., 100 nM of IP3 was added to measure the Ca^2+ release activity induced by the IP3. In addition, G224-m30 of 500 μg/ml was also added, and after about 1 min., 50 nM of IP3 was added to measure the Ca^2+ release activity induced by the IP3.

[5] = cited from earlier work
[6] = purified protein, [3H]IP3 binding
[7] = purified IP3 receptor, Maeda et al. 1990

With “T604: polypeptide of amino acids 1–604 (M-1 to K-604) of mouse Type-1 IP3 receptor” the Kd ([1]; 3 μg T604 soluble fraction, 9.6 nM [3H]IP3, cold IP3 competition (FIG. 2C)) was 45 ± 7.6 nM, the Bmax ([1]; E. coli soluble fraction) was 690 pmol/mg protein and 690±64 pmol/mg protein and the Kd ([1]; crude cell lysate / E. coli soluble fraction, 9.6 nM [3H]IP3 competed with cold IP3) was 45 nM. It also gave a Kd [2, 6] of 7.6 nM.
For “G224m30: G224 introduced with K508A mutation; low affinity IP3-binding polypeptide”, the “IC50 of IP3-binding inhibition” value [3] was 100 mg/L, the Bmax ([2]; purified protein) was 3.0 pmol/μg purified protein and the Kd [2, 6] was 330 nM. For the same substance, the Kd ([2]; purified protein, [3H]IP3 binding, listed as G224-m30) was ~330 nM, the “effect on inhibiting Ca2+ release versus control” value ([4]; 500 μg/ml, 50 nM IP3) was “Little difference” and the “inhibiting effect on Ca2+ release” value ([4]; 500 μg/ml, 100 nM IP3) was “no inhibiting effect”.
For “G224: fusion polypeptide of GST and amino acids 224–604 (M-224 to K-604) of IP3 receptor”, the “IC50 of IP3-binding inhibition” value [3] was “about 10 μg/ml”, the “binding to (1,4,5)IP3 and (2,4,5)IP3” value [2] was “binds well” and the Kd ([2]; purified GST fusion protein (FIG. 3A, 3B)) was 0.083 nM. The Bmax ([2]; purified protein) was 1.6 pmol/μg purified protein, the “affinity, times higher than that of polypeptide T734” value ([2]; relative to T734) was 500 times and the “concentration required for 50% inhibition of IP3-induced Ca2+ release” value ([4]; 100 nM IP3 (FIG. 7)) was “about 20 μg/ml”. For the same substance, the “inhibition of IP3-induced Ca2+ release” value ([4]; 100 μg/ml, 100 nM IP3 (FIG. 6F)) was “almost completely inhibited”.
In the case of “N4-T604: protein obtained by deleting amino acids 1–223 of T604; amino acids 224–604”, the “activity, times that of the original T604” value ([2]; relative to T604) is reported as “about 3 times”.
In the case of “T734: N-terminal 734 amino acids of mouse Type-1 IP3 receptor (mIP3R1)”, the Bmax ([5]; E. coli soluble fraction, Yoshikawa et al. 1996) is given as 46 pmol/mg protein and the Kd ([5]; crude cell lysates, Yoshikawa et al. 1996) is given as 50 ± 2.4 nM.
For “Amino acid region 224–579: 356-residue polypeptide almost corresponding to the IP3-binding core region”, the Kd ([5]; Yoshikawa et al. 1996) is listed as 2.3 nM.
For “Purified IP3R: purified natural IP3 receptor, Maeda et al. 1990”, the Bmax [5, 7] is given as 2.1 pmol/μg purified protein and the Kd [5, 7] is given as 83 nM.

— US7041440B2, “IP3-binding polypeptides and methods of using them” (Riken, priority 1998, dated 2006)
